Measurements from PMC2795317 (Journal of medicinal chemistry, 2009).

Test system: MDA-MB-231 breast cancer cells
Experiment: Western blot analysis of caspase-8/-3 processing and PARP cleavage
Assay type: cell-based
Settings: 24 hours; for Concentration inducing processing of caspase-3 and -8 and cleavage of PARP: concentrations as low as

| SMILES | Processing of caspase-8 and -3 and cleavage of PARP | Concentration inducing processing of caspase-3 and -8 and cleavage of PARP [nM] |
| --- | --- | --- |
| CN[C@@H](C)C(=O)N[C@H]1CCCC[C@H]2CC[C@@H](C(=O)N[C@@H]3CCCc4ccccc43)N2C1=O [Compound 8] | effectively induce processing of caspase-8 and -3 and cleavage of PARP in a dose-dependent manner | ≤ 10 |
| CN[C@@H](C)C(=O)N[C@H]1CCCC[C@H]2[C@@H](Cc3ccccc3)C[C@@H](C(=O)N[C@@H]3CCCc4ccccc43)N2C1=O [Compound 10] | effectively induce processing of caspase-8 and -3 and cleavage of PARP in a dose-dependent manner | ≤ 10 |
| CN[C@@H](C)C(=O)N[C@H]1CCCC[C@H]2CC[C@@H](C(=O)NC(c3ccccc3)c3ccccc3)N2C1=O [Compound 7] | effectively induce processing of caspase-8 and -3 and cleavage of PARP in a dose-dependent manner | – |
